Data set [1] concerns Phakopsora pachyrhizi (the causal agent of Asian soybean rust). In words: Test A: preventive spray on soybean seedlings, Asian soybean rust, visual disease rating. The format is in vivo. Particulars: Phakopsora pachyrhizi, 216 h, soybean seedlings, 100 = 100% disease control, 0 = no control; for pest or weed control at 10 ppm: 10 ppm test suspension. A digest of the protocol: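 Compound in acetone/water (50/50) with 250 ppm PEG400 sprayed to run-off on soybean seedlings; inoculated next day with Phakopsora pachyrhizi spores. Held 24 h at 22° C in saturated atmosphere, then 8 days in a 22° C growth chamber before visual rating as % disease control relative to controls.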

Data set [2] relates to Zymoseptoria tritici (the causal agent of wheat leaf blotch). Kind of data set: Test B: preventive spray on wheat seedlings, wheat leaf blotch, visual disease rating. The format is in vivo. As to conditions: Zymoseptoria tritici, 456 h, wheat seedlings; for pest or weed control at 250 ppm: 250 ppm test suspension, 100 = 100% disease control. The procedure, abridged: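 This is a preventive test: spray application preceded Zymoseptoria tritici spore inoculation by one day. Test suspensions were in acetone/water with 250 ppm PEG400 surfactant, at the listed ppm rate. After 48 h saturated humidity at 24° C and 17 days at 20° C, visual ratings scored control from 0 to 100%.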

In data set [3] the test system is Puccinia recondita f. sp. tritici (the causal agent of wheat leaf rust). In words: Test C: preventive spray on wheat seedlings, wheat leaf rust, visual disease rating. The format is in vivo. As to conditions: Puccinia recondita, 168 h, wheat seedlings; for pest or weed control at 10 ppm: 10 ppm test suspension. A digest of the protocol: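 Wheat seedlings sprayed to run-off with compound in acetone/water (50/50) with 250 ppm PEG400, then inoculated with spores the following day. After 24 h saturated humidity at 20° C. and 6 days in growth chamber at 20° C., disease rated visually as % control relative to untreated controls.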

Data set [4] concerns Phakopsora pachyrhizi (the causal agent of Asian soybean rust). In words: Test E: compounds alone and mixtures sprayed on soybean seedlings, Asian soybean rust, observed and Colby-expected disease control. The format is in vivo. The procedure, abridged: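 Soybean seedlings were sprayed to run-off with compounds or mixtures in ppm. Technical materials were applied in acetone/water with 250 ppm Trem 014; formulated products were applied in water. Plants were inoculated with Phakopsora pachyrhizi spores the next day, held 24 h saturated at 22° C, then 8 days at 22° C. Visual % disease control is the mean of four plants, and Colby-expected values are given for mixtures.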

Where [5] appears, read: 100 = 100% disease control, 0 = no control.
[6] abbreviates: Phakopsora pachyrhizi, Compound 509 alone, read-out: Test E Obsd.
Where [7] appears, read: Phakopsora pachyrhizi, applied alone, read-out: Test E Obsd.
The mark [8] stands for this setting: Phakopsora pachyrhizi, Compound 511 alone, read-out: Test E Obsd.
Setting [9] is: Phakopsora pachyrhizi, Compound 512 alone, read-out: Test E Obsd.

Like-named read-outs stand apart in the source and are kept apart here.

What is called melting point is the temperature, or range, at which the solid turns liquid. In the case of `O=C(NCC(F)(F)F)c1coc(Cc2ccc(-c3noc(C(F)(F)F)n3)cc2)n1` [Compound 316, N-(2,2,2-trifluoroethyl)-2-[[4-[5-(trifluoromethyl)-1,2,4-oxadiazol-3-yl]phenyl]methyl]-4-oxazolecarboxamide], the melting point lay within 164 to 168 °C. Moreover, the pest or weed control at 10 µg/mL in data set [1] (test suspension 10 ppm, read-out: Test A disease control rating) came out at 100%. Also, the pest or weed control at 250 µg/mL in data set [2] (test suspension 250 ppm) is 5%. In addition, the pest or weed control at 10 µg/mL in data set [3] (test suspension 10 ppm, read-out: Test C disease control rating) is 100%. For the same compound, the pest or weed control at 0.471 ppm in data set [4] (Phakopsora pachyrhizi, Compound 316 alone, 0.471 ppm, read-out: Test E Obsd) came to 24%. The pest or weed control at 0.764 ppm in data set [4] (Phakopsora pachyrhizi, Compound 316 alone, 0.764 ppm, read-out: Test E Obsd) amounted to 82%. The pest or weed control at 0.471 ppm in data set [4] (Phakopsora pachyrhizi, Table A-1, Compound 316 0.471 ppm alone, read-out: Test E Obsd (disease control rating)) came to 59%. Further, the pest or weed control at 0.764 ppm in data set [4] (Phakopsora pachyrhizi, Table A-1, Compound 316 0.764 ppm alone, read-out: Test E Obsd (disease control rating)) was 75%. Also, the pest or weed control at 0.471 ppm in data set [4] (Phakopsora pachyrhizi, Table B-1, Compound 316 0.471 ppm alone, read-out: Test E Obsd (disease control rating)) turned out to be 22%. Besides, in data set [4] (Phakopsora pachyrhizi, Table B-1, Compound 316 0.764 ppm alone, read-out: Test E Obsd (disease control rating)), the pest or weed control at 0.764 ppm worked out at 54%. Further, the pest or weed control at 0.471 ppm in data set [4] (Phakopsora pachyrhizi, Table C-1, Compound 316 0.471 ppm alone, read-out: Test E Obsd (disease control rating)) amounted to 49%. For the same compound, in data set [4] (Phakopsora pachyrhizi, Table C-1, Compound 316 0.764 ppm alone, read-out: Test E Obsd (disease control rating)), the pest or weed control at 0.764 ppm is 66%. The pest or weed control at 0.471 ppm in data set [4] (Phakopsora pachyrhizi, Table D-1, Compound 316 0.471 ppm alone, read-out: Test E Obsd (disease control rating)) was found to be 20%. For the same compound, the pest or weed control at 0.764 ppm in data set [4] (Phakopsora pachyrhizi, Table D-1, Compound 316 0.764 ppm alone, read-out: Test E Obsd (disease control rating)) is 70%. The pest or weed control at 0.471 ppm in data set [4] (Phakopsora pachyrhizi, Table F-1, Compound 316 0.471 ppm alone, read-out: Test E Obsd (disease control rating)) was 61%. Also, the pest or weed control at 0.764 ppm in data set [4] (Phakopsora pachyrhizi, Table F-1, Compound 316 0.764 ppm alone, read-out: Test E Obsd (disease control rating)) stood at 68%. In addition, the pest or weed control at 0.471 ppm in data set [4] (Phakopsora pachyrhizi, Table G-1, Compound 316 0.471 ppm alone, read-out: Test E Obsd (disease control rating)) amounted to 31%. In addition, the pest or weed control at 0.764 ppm in data set [4] (Phakopsora pachyrhizi, Table G-1, Compound 316 0.764 ppm alone, read-out: Test E Obsd (disease control rating)) turned out to be 64%. Also, the pest or weed control at 0.471 ppm in data set [4] (Phakopsora pachyrhizi, Table H-1, Compound 316 0.471 ppm alone, read-out: Test E Obsd (disease control rating)) worked out at 44%. Further, the pest or weed control at 0.764 ppm in data set [4] (Phakopsora pachyrhizi, Table H-1, Compound 316 0.764 ppm alone, read-out: Test E Obsd (disease control rating)) worked out at 80%. The pest or weed control at 0.471 ppm in data set [4] (Table E-1, Compound 316 0.471 ppm alone, read-out: Test E Obsd (disease control rating)) was determined as 61%. In data set [4] (Table E-1, Compound 316 0.764 ppm alone, read-out: Test E Obsd (disease control rating)), the pest or weed control at 0.764 ppm worked out at 58%.
With `COCCNC(=O)c1csc(Cc2ccc(-c3noc(C(F)(F)F)n3)cc2)n1` [Compound 394, N-(2-methoxyethyl)-2-[[4-[5-(trifluoromethyl)-1,2,4-oxadiazol-3-yl]phenyl]methyl]-4-thiazolecarboxamide], the melting point is 83 to 87 °C. In data set [1], the pest or weed control at 10 ppm was 100%. The pest or weed control at 250 ppm in data set [2] was found to be 99%. The pest or weed control at 10 ppm in data set [3] (setting [5]) was 100%. Moreover, the pest or weed control at 0.241 ppm in data set [4] (Phakopsora pachyrhizi, applied alone, 0.241 ppm, read-out: Test E Obsd) amounted to 4%.
`Cn1nc(C(=O)NCC(F)(F)F)cc1Cc1ccc(-c2noc(C(F)(F)F)n2)cc1` [Compound 509, 1-methyl-N-(2,2,2-trifluoroethyl)-5-[[4-[5-(trifluoromethyl)-1,2,4-oxadiazol-3-yl]phenyl]methyl]-1H-pyrazole-3-carboxamide]: the melting point is 142 to 142.9 °C. For the same compound, the pest or weed control at 50 ppm in data set [1] (50 ppm test suspension) came to 100%. Further, in data set [3] (50 ppm test suspension, 100 = 100% disease control, 0 = no control), the pest or weed control at 50 ppm is 99%. In data set [4] (setting [6]), the pest or weed control at 2.796 ppm amounted to 36% and the pest or weed control at 5.625 ppm came to 47%. In data set [4] (setting [7]), the pest or weed control at 2.796 ppm is 54% and the pest or weed control at 5.625 ppm was found to be 35%.
On to `COCCNC(=O)c1noc(Cc2ccc(-c3noc(C(F)(F)F)n3)cc2)n1` [Compound 511, N-(2-methoxyethyl)-5-[[4-[5-(trifluoromethyl)-1,2,4-oxadiazol-3-yl]phenyl]methyl]-1,2,4-oxadiazole-3-carboxamide], for which the melting point lay within 80 to 85 °C. Besides, the pest or weed control at 250 ppm in data set [1] (250 ppm test suspension) is 100%. Also, the pest or weed control at 250 ppm in data set [2] was 90%. Also, in data set [3] (250 ppm test suspension, 100 = 100% disease control, 0 = no control), the pest or weed control at 250 ppm is 100%. For the same compound, in data set [4] (setting [8]), the pest or weed control at 2.436 ppm stood at 21% and the pest or weed control at 4.926 ppm came out at 68%. Also, in data set [4] (setting [7]), the pest or weed control at 2.436 ppm was 40% and the pest or weed control at 4.926 ppm amounted to 66%.
The compound `Cn1nc(Cc2ccc(-c3noc(C(F)(F)F)n3)cc2)cc1C(=O)NCC(F)(F)F` [Compound 512, 1-methyl-N-(2,2,2-trifluoroethyl)-3-[[4-[5-(trifluoromethyl)-1,2,4-oxadiazol-3-yl]phenyl]methyl]-1H-pyrazole-5-carboxamide] came in with a melting point of 156 to 160 °C. In data set [1], the pest or weed control at 10 ppm was determined as 100%. In addition, in data set [2], the pest or weed control at 250 ppm amounted to 98%. Further, in data set [3] (setting [5]), the pest or weed control at 10 ppm amounted to 100%. In addition, in data set [4] (setting [9]), the pest or weed control at 1.893 ppm came to 9% and the pest or weed control at 3.829 ppm was determined as 58%. In addition, in data set [4] (setting [7]), the pest or weed control at 1.893 ppm amounted to 14% and the pest or weed control at 3.829 ppm is 66%.
